Measured values reported in the Deep4Chem optical property database.
Blank lines part the entries; values can stand above or below the compound they belong to.

Test: solvent given as SMILES

Structure (SMILES): c1ccc2sc(-c3ccc(-c4nnc(-c5ccc(-c6nnc(-c7ccc(-c8cc9ccccc9s8)s7)o6)cc5)o4)s3)cc2c1
- emission maximum (in C1COCCO1): 397 nm
- emission maximum (in CC#N): 399 nm
- emission maximum (in CC(=O)N(C)C): 406 nm
- emission maximum (in CCCCCCCCCCO): 389 nm
- emission maximum (in CCCCCCCCO): 399 nm
- emission maximum (in CCCCCCO): 399 nm
- emission maximum (in CCCCO): 399 nm
- emission maximum (in CCO): 400 nm
- emission maximum (in CS(C)=O): 423 nm
- emission maximum (in Cc1ccccc1): 399 nm
- emission maximum (in ClC(Cl)Cl): 399 nm

Structure (SMILES): CC1(C)c2ccccc2N(c2ccc3c(c2)c2cc(N4c5ccccc5C(C)(C)c5ccccc54)cc4c5ccccc5n3c42)c2ccccc21
- emission maximum (in C1CCCCC1): 427.57 nm
- emission maximum (in C1CCOC1): 481.94 nm
- emission maximum (in Cc1ccccc1): 449 nm

Structure (SMILES): O=C(c1ccc(C(=O)c2ccc(N3c4ccccc4Oc4ccccc43)cc2)cc1)c1ccc(N2c3ccccc3Oc3ccccc32)cc1
- emission maximum (in Cc1ccccc1): 600 nm
- emission maximum (in c1cc(-c2cccc(-n3c4ccccc4c4ccccc43)c2)cc(-n2c3ccccc3c3ccccc32)c1): 555 nm

Structure (SMILES): CCOC(=O)c1sc(SC)c2c(=O)[nH]nnc12
- emission maximum (in C1CCOC1): 465 nm
- emission maximum (in CC#N): 478 nm
- emission maximum (in CCO): 492 nm
- emission maximum (in CN(C)C=O): 478 nm
- emission maximum (in CO): 499 nm
- emission maximum (in CS(C)=O): 491 nm

Structure (SMILES): COc1ccc(N(c2ccccc2)c2cc3ccc4cc(N(c5ccccc5)c5ccc(OC)cc5)cc5ccc(c2)c3c45)cc1
- emission maximum (in Cc1ccccc1): 482 nm

Structure (SMILES): c1ccc(-c2oc(-c3ccccc3)c3ccccc23)cc1
- emission maximum (in C1CCCCC1): 448 nm
- emission maximum (in C1CCOC1): 451 nm
- emission maximum (in CC#N): 452 nm
- emission maximum (in CCO): 451 nm
- emission maximum (in CN(C)C=O): 458 nm
- emission maximum (in CS(C)=O): 460 nm
- emission maximum (in Cc1ccccc1): 454 nm

Structure (SMILES): Cc1cc(C)c2c(c1)nc1c(=O)n(C)c(=O)nc-1n2C
- emission maximum (in CC#N): 552 nm

Structure (SMILES): c1cc2c3ccc[n+]4cccc(c5ccc[n+](c1)c25)c34
- emission maximum (in CC#N): 442 nm
- emission maximum (in CS(C)=O): 443 nm
- emission maximum (in C[N+](=O)[O-]): 441 nm
- emission maximum (in O): 441 nm

Structure (SMILES): Cc1ccc(C)c2nc3c(=O)[nH]c(=O)[nH]c3nc12
- emission maximum (in CC#N): 491 nm

Structure (SMILES): COc1ccc(/C=C/c2ccc(-c3nnc(-c4ccc(-c5cc6ccccc6s5)cc4)o3)cc2)cc1
- emission maximum (in CC#N): 441 nm
- emission maximum (in CC(C)=O): 449 nm
- emission maximum (in CCCCCCCC): 407 nm
- emission maximum (in CCCCCCCCCCO): 427 nm
- emission maximum (in CCCCCCCCO): 433 nm
- emission maximum (in CCCCCO): 436 nm
- emission maximum (in CCCO): 438 nm
- emission maximum (in CN(C)C=O): 463 nm
- emission maximum (in CO): 445 nm
- emission maximum (in CS(C)=O): 459 nm

Structure (SMILES): CC1=CC(C)=[N+]2C1=C(c1c3ccccc3c(C)c3ccccc13)c1c(C)cc(C)n1[B-]2(F)F
- emission maximum (in CC#N): 518 nm
- emission maximum (in CCCCCC): 512 nm
- emission maximum (in CCO): 516 nm
- emission maximum (in CN(C)C=O): 519 nm
- emission maximum (in Cc1ccccc1): 517 nm
- emission maximum (in ClCCl): 519 nm

Structure (SMILES): Nc1ccc(-c2ccc3c(c2)C(=O)c2ccccc2C3=O)cc1
- emission maximum (in CCCCCC): 512 nm
- emission maximum (in CCOCC): 643 nm
- emission maximum (in Cc1ccccc1): 599 nm
- emission maximum (in ClC(Cl)(Cl)Cl): 562 nm
- emission maximum (in ClCCl): 695 nm

Structure (SMILES): O=S(=O)(c1ccc(N(c2ccccc2)c2ccccc2)cc1)c1ccc(S(=O)(=O)c2ccc(N(c3ccccc3)c3ccccc3)cc2)cc1
- emission maximum (in Cc1ccccc1): 451 nm

Structure (SMILES): CCCCCCCc1ccc(C2=[N+]3C(=C4c5cc(OCC(CC)CC)c(-c6ccc(CCCCCCC)o6)n5[B-](F)(F)[n+]5nnn(c54)[B-]3(F)F)C=C2OCC(CC)CC)o1
- emission maximum (in C1CCOC1): 829 nm
- emission maximum (in ClCCl): 835 nm

Structure (SMILES): N#CC(C#N)=C(/C=C/c1cc2c3c(c1)CCCN3CCC2)c1ccc2c3c(cccc13)CC2
- emission maximum (in C1CCOC1): 602 nm
- emission maximum (in CC#N): 622 nm
- emission maximum (in CC(C)=O): 619 nm
- emission maximum (in CCOC(C)=O): 600 nm
- emission maximum (in CN(C)C=O): 629 nm
- emission maximum (in CO): 613 nm
- emission maximum (in Cc1ccccc1): 580 nm
- emission maximum (in ClC(Cl)Cl): 599 nm

Structure (SMILES): CCCCc1cc(-c2cccc(COC)c2)oc1-c1cccc(-c2cc(CCCC)c(-c3cccc(-c4cc(CCCC)c(-c5cccc(-c6oc(-c7cccc(-c8oc(-c9cccc(-c%10oc(-c%11cccc(COC)c%11)cc%10CCCC)c9)cc8CCCC)c7)cc6CCCC)c5)o4)c3)o2)c1
- emission maximum (in ClC(Cl)Cl): 374 nm

Structure (SMILES): C(#Cc1cc2ccc3cc(C#Cc4ccccc4)cc4ccc(c1)c2c34)c1ccccc1
- emission maximum (in Cc1ccccc1): 418 nm

Structure (SMILES): CN(C)c1ccc(/C=C/c2cc(/C=C/c3ccc(N(C)C)cc3)nc(N)n2)cc1
- emission maximum (in Cc1ccccc1): 466 nm
- emission maximum (in ClC(Cl)Cl): 511 nm

Structure (SMILES): CN(C)c1ccc(/C=C2\OC(=O)c3cc(N)ccc32)cc1
- emission maximum (in CC#N): 561.8 nm
- emission maximum (in CC(C)=O): 537.06 nm
- emission maximum (in CC(C)CO): 542.89 nm
- emission maximum (in CC(C)O): 550.06 nm
- emission maximum (in CCCO): 559.91 nm
- emission maximum (in CCO): 568.18 nm
- emission maximum (in CCOC(C)=O): 520.83 nm
- emission maximum (in CCOCC): 444.84 nm
- emission maximum (in CO): 568.18 nm

Structure (SMILES): Cc1cc(C)c(-c2nnc(-c3ccc(-n4c5ccccc5c5ccccc54)cc3)o2)c(C)c1
- emission maximum (in CCO): 435 nm
- emission maximum (in Cc1ccccc1): 379 nm

Structure (SMILES): NCCc1c[nH]c2ccc(O)cc12
- emission maximum (in CC#N): 332 nm
- emission maximum (in CC(C)O): 335 nm
- emission maximum (in CO): 334 nm
- emission maximum (in O): 337 nm

Structure (SMILES): CCCCCCCCCCOC(=O)c1ccc2c3ccc(C(=O)OCCCCCCCCCC)c4c(C(=O)OCCCCCCCCCC)cc5[nH]c6cc(C(=O)OCCCCCCCCCC)c1c2c6c5c43
- emission maximum (in C1CCOC1): 493 nm

Continued, values first:

- emission maximum (in ClCCl): 473 nm
Structure (SMILES): N#CC(C#N)=Cc1ccc2c(c1)c1ccccc1n2-c1cccc2ccccc12

- emission maximum (in O): 547 nm
Structure (SMILES): CCOC(=O)CCCCCn1c2ccc(N)cc2c(=O)c2cc(N)ccc21

- emission maximum (in ClCCl): 682 nm
Structure (SMILES): O=c1c2cccc3cccc(c32)c2nc3cccc4cccc(c43)n12

- emission maximum (in C1CCOC1): 328 nm
- emission maximum (in C1COCCO1): 329 nm
- emission maximum (in CC#N): 330 nm
- emission maximum (in CC(C)O): 332 nm
- emission maximum (in CCO): 334 nm
- emission maximum (in CO): 335 nm
- emission maximum (in CS(C)=O): 335 nm
- emission maximum (in O): 350 nm
- emission maximum (in OCC(F)(F)F): 339 nm
Structure (SMILES): N#Cc1cc2ccccc2[nH]1

- emission maximum (in C1CCCCC1): 370 nm
- emission maximum (in CO): 380 nm
Structure (SMILES): C/C(=C\c1ccc(C)cc1)c1nc2ccccc2o1

- emission maximum (in C1CCCCC1): 432 nm
- emission maximum (in CC#N): 445 nm
Structure (SMILES): FC(F)(F)c1ccc(/C=C/c2nc3c(ccc4ccccc43)s2)cc1

- emission maximum (in CCO): 445 nm
Structure (SMILES): O=c1c2cc(F)c(O)cc2oc2cc(N3CCCCC3)c(F)cc12

- emission maximum (in C1COCCO1): 400 nm
- emission maximum (in CC#N): 451 nm
- emission maximum (in CCCCCC): 346 nm
- emission maximum (in CCCCCCC): 347 nm
- emission maximum (in CCCO): 425 nm
- emission maximum (in CCOC(C)=O): 408 nm
- emission maximum (in CS(C)=O): 462 nm
- emission maximum (in ClC(Cl)Cl): 404 nm
- emission maximum (in ClCCl): 417 nm
Structure (SMILES): COc1ccc(C#Cc2ccc(C#N)cc2)cc1OC

- emission maximum (in ClC(Cl)Cl): 466.4 nm
Structure (SMILES): F[B-]1(F)OC(c2ccc(Br)cc2)=Cc2c3ccccc3cc[n+]21

- emission maximum (in C1CCOC1): 403 nm
Structure (SMILES): CCCCC1(CCCC)c2cc(C#Cc3ccc(/C=C(\C)c4ccccc4)cc3)ccc2-c2ccc(C#Cc3ccc(/C=C(\C)c4ccccc4)cc3)cc21

- emission maximum (in ClCCl): 353 nm
Structure (SMILES): Cc1cc2c3ccccc3oc2c2[nH]c3ccccc3c12

- emission maximum (in CC#N): 496 nm
- emission maximum (in CO): 509 nm
Structure (SMILES): O=C1c2ccccc2-c2c(-c3ccc([N+](=O)[O-])cc3)c(-c3ccc([N+](=O)[O-])cc3)c(-c3ccccc3)c3cccc1c23

- emission maximum (in C1CCOC1): 465 nm
Structure (SMILES): N#Cc1c(N2CCCCC2)cc(-c2ccc3ccccc3c2)c2c1Cc1ccccc1-2

- emission maximum (in CC#N): 450 nm
- emission maximum (in CCO): 466 nm
Structure (SMILES): Cc1cc(=O)oc2cc3cc(O)ccc3cc12

- emission maximum (in C1CCCCC1): 390 nm
- emission maximum (in CO): 400 nm
Structure (SMILES): C(=C\c1nc2ccccc2s1)/c1ccccc1

- emission maximum (in CS(C)=O): 407 nm
Structure (SMILES): Fc1ccccc1-c1nc2sc3ccccc3c2s1

- emission maximum (in C1CCCCC1): 449 nm
- emission maximum (in C1CCOC1): 498 nm
- emission maximum (in CC#N): 543 nm
- emission maximum (in CS(C)=O): 547 nm
- emission maximum (in ClCCl): 520 nm
Structure (SMILES): C(=C\c1ncc2ccccc2n1)/c1ccc(N(c2ccccc2)c2ccccc2)cc1

- emission maximum (in C1CCOC1): 390 nm
Structure (SMILES): N#Cc1ccc(C=C(c2ccccc2)c2ccccc2)cc1

- emission maximum (in CO): 574 nm
Structure (SMILES): C#CCOc1ccc(/C=C/C2=[N+]3C(=C(c4ccccc4)c4c(C)cc(C)n4[B-]3(F)F)C(C)=C2)cc1

- emission maximum (in ClCCl): 423 nm
Structure (SMILES): CCCCC(CC)COc1ccc2nc(-c3ccc(-c4ccccc4)s3)sc2c1 (stereo not given)

- emission maximum (in ClCCl): 368 nm
Structure (SMILES): CC(C)(C)c1ccc2c(c1)c1cc(C(C)(C)C)ccc1n2-c1cccs1

- emission maximum (in ClCCl): 416 nm
Structure (SMILES): Cc1cc(-c2nc3c4ccccc4c4ccccc4c3n2-c2ccc(C(C)(C)C)cc2)ccc1-c1ccc(-c2c(-c3ccccc3)nc3ccccn23)cc1

- emission maximum (in C1CCOC1): 420 nm
Structure (SMILES): c1ccc(-c2cc(-c3ccccc3)cc(-c3ccc4c(c3)C3(c5cc(-c6cc(-c7ccccc7)cc(-c7ccccc7)c6)ccc5-4)c4ccccc4-c4c3c3c5ccccc5ccc3c3ccccc43)c2)cc1

- emission maximum (in C1CCCCC1): 381 nm
Structure (SMILES): CCC(C)(C)c1ccc2c(c1)C(CC)(CC)c1cc(-c3ccc(-c4ccc5c(c4)C(CC)(CC)c4cc(C(C)(C)CC)ccc4-5)cc3)ccc1-2

- emission maximum (in ClC(Cl)Cl): 496 nm
Structure (SMILES): F[B-]1(F)OC(c2ccc(N3CCCC3)cc2)=Cc2cccc[n+]21

- emission maximum (in ClCCl): 540 nm
Structure (SMILES): CCCCN1C(=O)c2ccc3c4ccc5c6c(cc(Br)c(c7ccc(c2c37)C1=O)c64)C(=O)N(CCCC)C5=O

- emission maximum (in CCCCCC): 464 nm
Structure (SMILES): CC(C)[Si](C#Cc1c2ccccc2c(C#C[Si](C(C)C)(C(C)C)C(C)C)c2nc3c(nc12)C1c2ccccc2C3c2ccccc21)(C(C)C)C(C)C

- emission maximum (in ClCCl): 617 nm
Structure (SMILES): Cc1cc(C)c(-c2c3ccccc3c3ccc4cc5c(-c6c(C)cc(C)cc6C)c6ccccc6c6ccc7cc2c3c4c7c56)c(C)c1

- emission maximum (in C1CCCCC1): 385 nm
- emission maximum (in CC#N): 375 nm
- emission maximum (in CO): 400 nm
- emission maximum (in ClC(Cl)Cl): 375 nm
Structure (SMILES): CC1(C)CC(/N=C/c2ccc3ccc4cccc5ccc2c3c45)CC(C)(C)N1[O]
